Data as given in publication PMC9450014, “The evaluation of ADME and pharmacokinetic properties of decoquinate derivatives for the treatment of malaria” (Frontiers in Pharmacology, 2022).
Like-named read-outs stand apart in the source and are kept apart here.

How the values were obtained:
[1] = Non-specific liver microsomal binding, HLM; assay type: in vitro ADME; conditions: human liver microsomes
Method: Plasma protein binding was determined in pooled human plasma using an ultracentrifugation method. Stock solutions of test compounds were diluted in phosphate buffer and spiked into plasma in deep well 96-well plates. An aliquot of each compound was immediately precipitated with ice cold acetonitrile containing the internal standard carbamazepine (0.1 μM). These served as total concentration samples. After incubation in a water bath (37°C for 1 h), samples were transferred to ultracentrifuge tubes in duplicate and centrifuged for 4 h at 37°C and 30,000 g (Optima L-80XP, Beckman). Following centrifugation, the supernatant was transferred to the plate containing the total concentration samples and precipitated with ice cold acetonitrile containing the internal standard. Samples were analysed by LC-MS/MS (Shimadzu HPLC coupled with an AB Sciex 3200 Q TRAP MS). Non-specific binding in mouse liver microsomes (MLM) and human liver microsomes (HLM) were also determined with the ultracentrifugation method. Stock solutions of compounds (10 mM) were added in duplicate to microsome solution (0.5 mg/mL) in phosphate buffer (pH 7.4) to obtain a final drug concentration of 1 μM. The same method as for plasma protein binding was utilized. Analyte concentrations of all compounds were determined via LC-MS/MS (reverse phase Gemini NX-C18 column and Shimadzu HPLC coupled with an AB Sciex 3200 Q TRAP MS).

Pf NF54 = conditions: ref Beteck et al., 2018, cited from earlier work
[2] = Lipophilicity, 1-octanol/phosphate buffer pH 7.4 (LogD7.4); assay type: physicochemical
Method: Stock solutions ([…]) of compounds were diluted to 100 μM in 96-well deep-well plate containing 1-octanol and phosphate buffer at pH 7.4. The plate was agitated on an orbital shaker at 750 rpm for 2 h. The organic and buffer layers of each well were transferred separately to a new analysis plate. The samples were analysed with the HPLC-diode array detection as described for kinetic solubility. Samples from both layers were analysed to determine LogD7.4 values.

[3] = Metabolic stability in mouse liver microsomes; assay type: in vitro ADME
Method: A 5-point metabolic stability assay in human and mouse liver microsomes were performed in duplicate in 96-well plates. Stock solution of RMB005, −059 and 060 prepared in DMSO were individually incubated at 37°C in mouse and pooled human liver microsomes (0.4 mg/mL). An aliquot was removed at 0 min and quenched with ice cold acetonitrile containing the internal standard carbamazepine (0.1 μM). The cofactor NADPH was added, and the reactions were subsequently stopped at time points 5, 10, 30, and 60 min by removal of an aliquot and quenching with ice cold acetonitrile containing the internal standard. The supernatant of all samples were analysed via LC-MS/MS analysis (reverse phase Gemini NX-C18 column and Shimadzu HPLC and AB Sciex 3200 Q TRAP MS). Calculation of in vitro t1/2, intrinsic clearance rate (CLint) and predicted in vivo clearance (CLH) was carried out using the following equations ([Obach 1999]). CLintClint= 0.693/t1/2(min) ×Volume of incubation (μL)/microsomal protein (μg) Where t1/2 is calculated in minutes.
Predicted in vivo CLH CLH=Q × fu(plasma)×CLint/fu(mic)/Q+ fu(plasma)× CLint/fu(mic) Where Q is the hepatic blood flow of mouse (90 mL/min/kg) or human (20.7 mL/min/kg). Fu(plasma) is the unbound drug fraction in the plasma and fu(mic) is the unbound fraction in the microsomes.
The equation below was used in the case of RMB059 and -060, where protein-binding data were not available. CLH=Q × CLint/Q+ CLint

[4] = In vivo pharmacokinetics, intravenous administration; set-up: species or system C57BL/6 mice; conditions: C57BL/6, mouse, iv, mice, whole blood, dosed compound measured
Method: Healthy C57BL/6 mice each weighing approximately 25 g were maintained at the University of Cape Town animal facility. Mice were housed in 27 × 21 × 28 cm cages (n = 3) under controlled environmental conditions at 22 ± 2°C, humidity of 55 ± 15% and a 12-hour light/dark cycle. Food and water were available ad libitum. Mice were acclimatised to the experimental environment for 4–5 days prior to initiating the experiments. […] The total volume of administration was 80 μL. Blood samples were collected post-dose in lithium heparin microvials via tail bleeding at predetermined intervals at 0.16, 0.5, 1, 3, 5, 8, 10, and 24 h. Samples were gently vortexed and stored at −80°C until analysis. A quantitative LC-MS/MS assay was used to determine whole-blood concentrations of RMB005, −059 and −060. Whole blood samples (20 μL) were treated with 100 μL ice cold acetonitrile containing the compound RMB073 used previously for determination of whole blood concentrations in analysis of TB-active compounds, as internal standard (200 ng/ml) ([Tanner et al., 2019]). The mixture was vortexed vigorously for 1 min, and 5 µL of the supernatant were injected onto the analytical column following centrifugation (5,590 g for 5 min). Gradient elution was carried out using a Gemini NX-C18 analytical column (5 μm, 2.1 mm × 50 mm). The aqueous mobile phase consisted of 5 mm ammonium acetate with 0.1% acetic acid in deionised water, while the organic phase consisted of 0.1% acetic acid in acetonitrile. A Shimadzu HPLC and reverse phase Gemini NX-C18 column coupled to an AB Sciex 3200 Q TRAP MS was operated at unit resolution in the multiple reaction monitoring (MRM) mode. […] The calibration standards ranged from 2 ng/mL to 3,000 ng/mL for RMB005, and 2 ng/mL to 4,000 ng/mL for RMB059, −060 and DQ. Drug concentration versus time plots for each compound were used to determine maximal drug concentration C max, time T max to reach C max, elimination half-life t 1/2 and the area under the concentration-time curve from time zero to infinity, AUC0-inf. From these values the following PK parameters—clearance CL, volume of distribution (Vd) and oral bioavailability (BA) were determined using the non-compartmental analysis Microsoft Excel Add-In PKSolver ([Zhang et al., 2010]).

[5] = Kinetic solubility in PBS (HPLC-DAD); assay type: physicochemical; conditions: phosphate buffer saline (PBS); for solubility kinetic at 2 h: aqueous buffer, kinetic from dmso stock
Method: Stock concentrations of test samples (10 mM) were prepared in DMSO and diluted to a final concentration of […] in phosphate buffer saline (PBS) solutions at pH 2, 6.5, and 7.4 in flat-bottomed 96-well plates. A three-point calibration curve of each control and test compound was prepared from stock solutions in DMSO. Plates were agitated on an orbital shaker at room temperature for 2 h at 200 rpm and subsequently analysed using a reverse phase Gemini NX-C18 column (5 μM, 2.1 mm × 50 mm) with an Agilent 1,200 Rapid Resolution HPLC and diode array detection.

Bound to microsomes [1]: 99%
logD at 2 h [2]: 3.2
half-life ([3]; mouse liver microsomes, NADPH, read-out: Degradation half-life MLM): 1.22 h
CLint scaled ([3]; mouse, liver microsomes, calculated from t1/2 in MLM, read-out: In vitro CLint MLM): 104 mL/min/kg
Estimated in vivo CLH MLM ([3]; protein binding data included): 81.2 mL/min/kg
Vd ([4]; 5 mg/kg per table footnote): 6.59 ± 1.83 L/kg
clearance ([4]; 5 mg/kg per table footnote): 28.5 ± 2.17 mL/min/kg
half-life ([4]; 5 mg/kg per table footnote (10 mg/kg per method)): 2.62 ± 0.61 h
solubility kinetic at 2 h ([5]; PBS pH 2, read-out: Kinetic solubility pH 2): < 5 µM
solubility kinetic at 2 h ([5]; PBS pH 6.5, read-out: Kinetic solubility pH 6.5): < 5 µM
solubility kinetic at 2 h ([5]; PBS pH 7.4, read-out: Kinetic solubility pH 7.4): < 5 µM
solubility at 2 h ([5]; all pH levels tested (pH 2, 6.5, 7.4)): < 5 µM
Structure (SMILES): CCCCCCCCCCOc1cc2c(=O)c(C(=O)NCCOCCO)c[nH]c2cc1OCC [RMB005]
IC50 (Pf NF54; Pf NF54, read-out: NF54 IC50 (line in the PK figures, in vitro IC50 in the discussion)): 40 nM
IC50 (Pf NF54; read-out: IC50 against Pf NF54): 40.4 nM
